Assay results: US20110275577A1, “METHODS OF TREATING DERMATOLOGIC, GYNECOLOGIC, AND GENITAL DISORDERS WITH CAFFEIC ACID ANALOGS” (Moleculin, LLC, priority 2010, published 2011)

System: psoriasis patients
Test: Human Psoriasis Study of WP1220 and CABE (pilot study)
Format: in vivo
Details: topical treatment; psoriasis patients not responsive to current standard therapies
Description: Human Psoriasis Study of WP1220 and CABE—The compounds WP1220 and CABE were tested in a pilot study of psoriasis patients who were not responsive to current standard therapies.

Question: `O=C(/C=C/c1ccc(O)c(O)c1)OCc1ccccc1` [CABE, (E)-Benzyl 3-(3,4-dihydroxyphenyl)acrylate] was tested. Which “patients responded with substantial improvement or complete resolution of psoratic lesions” value did it give?
Answer: The value was “five out of seven”.

Question: With `C[C@H](NC(=O)/C(C#N)=C/C=C/c1cccc(Br)n1)c1ccccc1` [WP1220, (2E,4E)-5-(6-bromopyridin-2-yl)-2-cyano-N—((S)-1-phenylethyl)penta-2,4-dienamide] as the molecule, how does the “patients responded with substantial improvement or complete resolution of psoratic lesions” value read?
Answer: Its value is “seven out of seven”.
